What is called pEC50 is the EC50 on a negative log10 scale, so that one unit is a factor of ten.

This is an account of results in US11865181B2, “Peptidic materials that traffic efficiently to the cell cytosol and nucleus” (Yale University, priority 2017, dated 2024).

Series [1] relates to hDM2-overexpressing SJSA-1 cells. The class given is cell-based. As for the experimental part:
SJSA-1 cells were seeded into a 96-well plate (2,000 cells/well) and incubated overnight at 37° C. After washing twice in PBS, cells are incubated with peptide or Nutlin-3a (Santa Cruz Biotechnology, Santa Cruz, Calif.) in Opti-MEM (Invitrogen, Carlsbad, Calif.) for 24 hours. Cell viability was then assayed using CellTiter-Glo (Promega, Madison, Wis.) according to the manufacturer's protocol. Luminescence measurements were taken on a SpectraMax M5 plate reader (Molecular Devices, Sunnyvale, Calif.).
Previously it has been shown that the efficacy with which hydrocarbon-stapled peptides reach the cytosol correlates with their efficacy in cell-based assays (LaRochelle et al., J. Am. Chem. Soc., 2015, 137, 2536-2541). To examine whether the biological activity of these penta-arg peptides correlated with how efficiently they accessed the cytosol, cell viability assays were performed using N-acetylated versions of the peptides and hDM2-overexpressing SJSA-1 cells (FIG. 4 and FIG. 5).

Series [2] concerns HeLa cells. The note with it: cited from earlier work.
Series [3] relates to hDM2-overexpressing SJSA-1 cells. The note with it: literature values (Bernal et al. 2007; 2010); read-out: previously reported EC50, SJSA-1 cell viability; cited from earlier work.

pEC50: −log10 of the molar value. Where two headings read alike, the source gives them in different places. Positions of bridges follow the written chain, without caps; N, C: chain ends. Non-standard residues stand in square brackets, D forms with d. Residues, ends and D or L forms follow the SMILES beside them. R8 = C=CCCCCCC[C@@](C)(N)C(=O)O; S5 = C=CCCC[C@](C)(N)C(=O)O

In series [1] (24 h), `CC(=O)N[C@@H](CCCNC(=N)N)C(=O)N[C@@H](CO)C(=O)N[C@@H](CCC(N)=O)C(=O)N[C@@H](CCC(=O)O)C(=O)N[C@@H](CCCNC(=N)N)C(=O)N[C@@H](Cc1ccccc1)C(=O)N[C@]1(C)CCCCCCC=CCCC[C@@](C)(C(=O)N[C@@H](CCCNC(=N)N)C(=O)N[C@@H](CCCNC(=N)N)C(N)=O)NC(=O)[C@H](CC(C)C)NC(=O)[C@H](CCCNC(=N)N)NC(=O)[C@H](CCCCN)NC(=O)[C@H](Cc2c[nH]c3ccccc23)NC(=O)[C@H](CC(C)C)NC(=O)[C@H](CC(=O)O)NC1=O` [BP1.4^Ac, Ac-RSQERFR8DLWKRLS5RR-NH2] (Ac-RSQERF[R8]DLWKRL[S5]RR-NH2; staple 7-14) gave a pEC50 of 5.11.
Take “Ac-LSQETFR8DLWKLLS5EN-NH2 (Ac-LSQETF[R8]DLWKLL[S5]EN-NH2; staple 7-14) [SAH-p53-4, reference compound]”: in series [1] (concentrations as high as 60 μM, 24 hours), the “effect on SJSA-1 cell viability (in words)” value is recorded as “no decrease in viability”. In addition, the “ability to breach the plasma membrane as judged by flow cytometry” value in series [2] was “fails to effectively breach the plasma membrane”.
Molecule `CC(=O)N[C@@H](CC(C)C)C(=O)N[C@@H](CCCNC(=N)N)C(=O)N[C@@H](CCCNC(=N)N)C(=O)N[C@@H](CCC(=O)O)C(=O)N[C@H](C(=O)N[C@@H](Cc1ccccc1)C(=O)N[C@]1(C)CCCCCCC=CCCC[C@@](C)(C(=O)N[C@@H](CCCNC(=N)N)C(=O)N[C@@H](CC(N)=O)C(N)=O)NC(=O)[C@H](CC(C)C)NC(=O)[C@H](CCCNC(=N)N)NC(=O)[C@H](CCCCN)NC(=O)[C@H](Cc2c[nH]c3ccccc23)NC(=O)[C@H](CCCNC(=N)N)NC(=O)[C@H](CC(=O)O)NC1=O)[C@@H](C)O` [BP1.5^Ac, Ac-LRRETFR8DRWKRLS5RN-NH2] (Ac-LRRETF[R8]DRWKRL[S5]RN-NH2; staple 7-14) gave a pEC50 in series [1] (24 h) of 5.11.
`CC(=O)N[C@@H](CCCNC(=N)N)C(=O)N[C@@H](CO)C(=O)N[C@@H](CCC(N)=O)C(=O)N[C@@H](CCCNC(=N)N)C(=O)N[C@@H](CCCNC(=N)N)C(=O)N[C@@H](Cc1ccccc1)C(=O)N[C@]1(C)CCCCCCC=CCCC[C@@](C)(C(=O)N[C@@H](CCC(=O)O)C(=O)N[C@@H](CC(N)=O)C(N)=O)NC(=O)[C@H](CC(C)C)NC(=O)[C@H](CC(C)C)NC(=O)[C@H](CCCNC(=N)N)NC(=O)[C@H](Cc2c[nH]c3ccccc23)NC(=O)[C@H](CC(=O)O)NC(=O)[C@H](CCCNC(=N)N)NC1=O` [BP1.2^Ac, Ac-RSQRRFR8RDWRLLS5EN-NH2] (Ac-RSQRRF[R8]RDWRLL[S5]EN-NH2; staple 7-14) gave a pEC50 in series [1] (24 h) of 5.72.
`CC(=O)N[C@@H](CC(C)C)C(=O)N[C@@H](CO)C(=O)N[C@@H](CCC(N)=O)C(=O)N[C@@H](CCC(=O)O)C(=O)N[C@H](C(=O)N[C@@H](C)C(=O)N[C@]1(C)CCCCCCC=CCCC[C@@](C)(C(=O)N[C@@H](CCCNC(=N)N)C(=O)N[C@@H](CCCNC(=N)N)C(N)=O)NC(=O)[C@H](CC(C)C)NC(=O)[C@H](CCCNC(=N)N)NC(=O)[C@H](CCCNC(=N)N)NC(=O)[C@H](Cc2c[nH]c3ccccc23)NC(=O)[C@H](CC(C)C)NC(=O)[C@H](CCCNC(=N)N)NC1=O)[C@@H](C)O` [BP1.6F19A^Ac, Ac-LSQETAR8RLWRRLS5RR-NH2] (Ac-LSQETA[R8]RLWRRL[S5]RR-NH2; staple 7-14) had a negative logarithm of the EC50 (pEC50) in series [1] (24 h) of 5.32.
Same read-out and setting: the result for `CC(=O)N[C@@H](CC(C)C)C(=O)N[C@@H](CO)C(=O)N[C@@H](CCC(N)=O)C(=O)N[C@@H](CCC(=O)O)C(=O)N[C@H](C(=O)N[C@@H](Cc1ccccc1)C(=O)N[C@]1(C)CCCCCCC=CCCC[C@@](C)(C(=O)N[C@@H](CCCNC(=N)N)C(=O)N[C@@H](CCCNC(=N)N)C(N)=O)NC(=O)[C@H](CC(C)C)NC(=O)[C@H](CCCNC(=N)N)NC(=O)[C@H](CCCNC(=N)N)NC(=O)[C@H](Cc2c[nH]c3ccccc23)NC(=O)[C@H](CC(C)C)NC(=O)[C@H](CCCNC(=N)N)NC1=O)[C@@H](C)O` [BP1.6^Ac, Ac-LSQETFR8RLWRRLS5RR-NH2] (Ac-LSQETF[R8]RLWRRL[S5]RR-NH2; staple 7-14) reads 5.72.
With `COc1ccc(C2=N[C@@H](c3ccc(Cl)cc3)[C@@H](c3ccc(Cl)cc3)N2C(=O)N2CCNC(=O)C2)c(OC(C)C)c1` [Nutlin-3a, reference compound], the pEC50 in series [1] (24 hours in Opti-MEM, N-acetylated peptides, read-out: EC50, decrease in SJSA-1 cell viability) is 4.64; in series [3], roughly 5.15.
